Experimental data from patent US20130150386A1 (priority 2011, published 2013).

Key:
[1] = in vivo; cited from earlier work
NSCLC patients = details: E-cad 3+ sub-group [N=26]

Row | SMILES | half-life [1] | overall survival (NSCLC patients)
1 | Nc1ccccc1NC(=O)c1ccc(CNC(=O)OCc2cccnc2)cc1 [Entinostat, N-(2-aminophenyl)-4-[N-(pyridine-3-yl)methoxycarbonylamino-methyl]-benzamide] | about 100 hours | 
2 | C#Cc1cccc(Nc2ncnc3cc(OCCOC)c(OCCOC)cc23)c1 [erlotinib/placebo] |  | 5.4 months
